{
  "source": "patent US20230241226A1",
  "about": "“COMPOUNDS FOR TARGETED DEGRADATION OF CARRIER PROTEINS AND USES THEREOF” (CeMM - Forschungszentrum für Molekulare Medizin GmbH, priority 2019, published 2023)",
  "target": "T1, dTAG-HA SLC38A2 (knock-in) (Homo sapiens, UniProt Q96QD8+Q96SW2)",
  "T1 construct": "SLC38A2 was selected for endogenous tagging at the N-terminus; endogenous in cells",
  "T1 sequence (Q96SW2 whole entry)": "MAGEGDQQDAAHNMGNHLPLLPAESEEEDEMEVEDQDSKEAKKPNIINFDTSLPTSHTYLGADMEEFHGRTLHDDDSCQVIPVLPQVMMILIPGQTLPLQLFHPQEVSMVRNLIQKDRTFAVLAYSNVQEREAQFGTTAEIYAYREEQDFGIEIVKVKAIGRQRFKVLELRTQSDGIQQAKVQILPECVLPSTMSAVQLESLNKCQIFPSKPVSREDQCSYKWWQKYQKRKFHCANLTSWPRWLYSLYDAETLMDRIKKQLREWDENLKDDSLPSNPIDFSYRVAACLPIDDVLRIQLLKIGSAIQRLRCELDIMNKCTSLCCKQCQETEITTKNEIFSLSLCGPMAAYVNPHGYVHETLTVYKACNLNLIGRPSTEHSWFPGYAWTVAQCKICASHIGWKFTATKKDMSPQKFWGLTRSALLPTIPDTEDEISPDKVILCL",
  "T1 sequence (Q16531 whole entry, further chain)": "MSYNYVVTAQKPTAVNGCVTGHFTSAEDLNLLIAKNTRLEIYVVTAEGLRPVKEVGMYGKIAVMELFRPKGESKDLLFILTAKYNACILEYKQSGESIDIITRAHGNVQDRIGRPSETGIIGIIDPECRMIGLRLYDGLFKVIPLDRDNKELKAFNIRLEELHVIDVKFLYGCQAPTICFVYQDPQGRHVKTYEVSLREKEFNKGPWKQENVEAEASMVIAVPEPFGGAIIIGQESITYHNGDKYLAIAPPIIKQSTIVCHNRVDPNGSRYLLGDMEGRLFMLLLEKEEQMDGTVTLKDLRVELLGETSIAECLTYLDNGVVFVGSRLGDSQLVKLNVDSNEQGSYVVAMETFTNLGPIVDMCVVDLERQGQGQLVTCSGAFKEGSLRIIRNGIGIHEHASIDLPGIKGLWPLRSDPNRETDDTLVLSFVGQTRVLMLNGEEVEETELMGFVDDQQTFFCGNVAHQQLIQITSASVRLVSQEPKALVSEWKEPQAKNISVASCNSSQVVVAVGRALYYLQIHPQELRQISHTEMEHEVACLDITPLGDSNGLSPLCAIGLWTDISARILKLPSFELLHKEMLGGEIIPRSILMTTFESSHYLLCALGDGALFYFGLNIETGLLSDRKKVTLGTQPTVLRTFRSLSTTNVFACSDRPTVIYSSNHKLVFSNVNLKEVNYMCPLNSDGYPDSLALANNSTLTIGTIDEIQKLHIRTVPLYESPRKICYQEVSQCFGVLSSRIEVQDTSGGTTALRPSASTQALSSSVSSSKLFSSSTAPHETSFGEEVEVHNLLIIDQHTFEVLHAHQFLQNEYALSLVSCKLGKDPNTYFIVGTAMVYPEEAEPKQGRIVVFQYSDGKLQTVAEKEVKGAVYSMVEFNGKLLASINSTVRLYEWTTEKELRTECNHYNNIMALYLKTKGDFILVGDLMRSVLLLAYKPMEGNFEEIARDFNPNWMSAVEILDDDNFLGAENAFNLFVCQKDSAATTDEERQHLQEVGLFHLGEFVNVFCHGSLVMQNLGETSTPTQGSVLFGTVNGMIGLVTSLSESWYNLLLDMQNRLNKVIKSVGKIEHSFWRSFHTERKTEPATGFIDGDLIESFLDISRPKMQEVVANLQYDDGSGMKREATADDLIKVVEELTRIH",
  "T1 sequence (Q96QD8 other isoform, or with tags, fused parts or gaps)": "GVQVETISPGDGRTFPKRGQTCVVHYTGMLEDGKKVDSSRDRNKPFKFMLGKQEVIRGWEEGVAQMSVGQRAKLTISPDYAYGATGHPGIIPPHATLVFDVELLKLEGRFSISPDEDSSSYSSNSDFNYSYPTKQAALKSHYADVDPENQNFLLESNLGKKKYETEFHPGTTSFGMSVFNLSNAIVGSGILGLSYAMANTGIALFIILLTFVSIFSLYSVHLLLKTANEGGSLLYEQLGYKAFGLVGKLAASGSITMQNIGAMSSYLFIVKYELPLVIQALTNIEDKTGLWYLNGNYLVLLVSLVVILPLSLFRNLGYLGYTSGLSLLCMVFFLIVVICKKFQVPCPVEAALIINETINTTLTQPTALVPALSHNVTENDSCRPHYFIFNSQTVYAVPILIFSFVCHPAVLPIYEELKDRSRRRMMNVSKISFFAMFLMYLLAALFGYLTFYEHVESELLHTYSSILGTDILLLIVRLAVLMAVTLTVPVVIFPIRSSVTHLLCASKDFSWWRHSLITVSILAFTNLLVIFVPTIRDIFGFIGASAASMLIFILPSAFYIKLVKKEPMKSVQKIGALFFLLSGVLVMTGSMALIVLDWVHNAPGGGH",
  "assay": "dTAG knock-in: degradation of endogenously tagged SLC38A2 induced by amino acid starvation",
  "assay_type": "cell-based",
  "source_text": "(A) dTAG knock-in: SLC38A2 was tagged at N-terminus with dTAG-HA. Blasticidn was used as the selection marker. Single cell clones were derived and characterized as previously described. Two representative clones, B7 and C9 are presented here.\n(B) The expression of dTAG-HA SLC38A2 was induced by replacing the normal culture media with media deprived of amino acids and FBS. Expression of the endogenous SLC is induced rapidly and was monitored by immunofluorescence imaging and quantified by automated image analysis. Representative images are shown.\n(C)The effect of amino acid starvation on dTAG-HA SLC38A2 expression in HAP1 cells. Cells were treated with 0.5 µM dTAG13 and/or media lacking amino acids/FBS for either 6 or 10 hours, after which expression and degradation were monitored via western blot.\n(D) Immunofluorescence imaging of two different HAP1 clones expressing dTAG-HA SLC38A2. Cells were incubated in media lacking amino acids/FBS for 8 hours and treated with 0.5 µM dTAG13 for either 8 or 10 hours. Expression of the endogenous SLC is induced rapidly and was monitored by immunofluorescence and quantified by automated image analysis. Representative images are presented.\nHEK293T, LS180 were obtained from ATCC (Manassas, VA, USA), HAP1 WT, HAP1 -/-SLC38A2 (HZGHC001975c003), HAP1 -/-SLC38A9 (HZGHC000777c011) were obtained from Horizon Genomics. […]\nFor immunoblotting, whole cell extracts were prepared using RIPA lysis buffer (25 mM Tris/HCl pH 7.6, 150 mM NaCl, 1% NP-40, 1% sodium deoxycholate, 0.1% SDS, EDTA-free protease inhibitor (Roche) and phosphatase inhibitors 2+3 (Sigma- Aldrich)). […] Protein extracts were quantified and normalized using the BCA assay (Thermo Scientific). […]",
  "note": "“Also recorded” adds a separate entry of the source.",
  "data": [
    {"smiles": "CC[C@H](C(=O)N1CCCC[C@H]1C(=O)O[C@H](CCc1ccc(OC)c(OC)c1)c1ccccc1OCC(=O)NCCCCCCOc1cccc2c1C(=O)N(C1CCC(=O)NC1=O)C2=O)c1cc(OC)c(OC)c(OC)c1", "note": "(stereo partly drawn) [dTAG13]", "values": [
      {"measurement": "degradation of knock-in dTAG-HA SLC38A2 (western blot)", "setting": "HAP1, 0.5 µM cotreatment with media lacking amino acids/FBS, 6 or 10 hours", "result": "Near complete degradation"},
      {"measurement": "SLC38A2 expression after pre-treatment (immunofluorescence, automated image analysis)", "setting": "HAP1 knock-in clones, 0.5 µM, 2 hours pre-treatment, 8 hours starvation", "result": "completely abrogate any SLC expression; also recorded: completely ablated"},
      {"measurement": "reduction of SLC38A2 expression by co-treatment", "setting": "HAP1 knock-in clones, 0.5 µM, co-treatment with starvation 8 hours", "result": "more than 50%"}
    ]}
  ]
}
